For orientation: GI50 means the concentration that inhibits growth by half. Usually TGI stands for the concentration giving total growth inhibition. Read a low TGI as more potent growth arrest.

This passage reports GI50 and TGI results from PubChem BioAssay (NCI).

Values joined by “and” are separate entries in the source; they are usually repeats but may differ in a detail not shown here. Identical values can stand only once.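 Following 48 hours of exposure in 96-well plates, responses at five concentrations were used to interpolate endpoints linearly. GI50: concentration for 50% inhibition of growth. Definition used: TGI = concentration required for complete inhibition of growth.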 Some results are limits rather than exact numbers.

Test systems include HOP-62 NSCLC; M14 melanoma; NCI-H23 lung; OVCAR-3 ovarian; OVCAR-8 ovarian; SF-295 CNS; SK-MEL-5 melanoma; SK-OV-3 ovarian; SR leukemia; SW-620 colon.
Common to all, as to assay: DTP human tumour cell line panel, 48 h

`Cc1ccc(-c2nc3ccc(Cl)cc3c(=O)n2N2C(=O)CSC2c2ccccc2Cl)cc1` (stereo not drawn): the GI50 in the assay on HOP-62 NSCLC was 1.98 µM; in the assay with M14 melanoma, 56.2 µM; in the assay with NCI-H23 lung, more than 100 µM; in the assay with OVCAR-3 ovarian it was 5.44 µM; with OVCAR-8 ovarian, 4.58 µM; in the assay on SF-295 CNS, 4.73 µM. Further, the GI50 with SK-MEL-5 melanoma is 20 µM; in the assay on SK-OV-3 ovarian, 2.89 µM; in the assay with SR leukemia it was more than 100 µM; in the assay on SW-620 colon, more than 100 µM. The concentration for total growth inhibition (TGI) is 5.09 µM with HOP-62 NSCLC; more than 100 µM in the assay with M14 melanoma; more than 100 µM with NCI-H23 lung; more than 100 µM in the assay with OVCAR-3 ovarian; more than 100 µM with OVCAR-8 ovarian; more than 100 µM in the assay on SF-295 CNS. Besides, the total growth inhibition concentration (TGI) in the assay with SK-MEL-5 melanoma was more than 100 µM; in the assay with SK-OV-3 ovarian, 9.9 µM; in the assay with SR leukemia it was more than 100 µM; in the assay with SW-620 colon, more than 100 µM.
With `O=C1Nc2ccc(F)cc2/C1=C/c1ccc[nH]1`, the GI50 in the assay with HOP-62 NSCLC was more than 25 µM; with M14 melanoma, more than 25 µM; in the assay on NCI-H23 lung it was more than 25 µM; in the assay on OVCAR-3 ovarian it was more than 18.4 µM; with OVCAR-8 ovarian, more than 25 µM; with SF-295 CNS, more than 25 µM. Moreover, the GI50 is more than 25 µM with SK-MEL-5 melanoma, more than 25 µM with SK-OV-3 ovarian, 7.84 µM in the assay on SR leukemia and 24.6 µM in the assay on SW-620 colon. Moreover, the total growth inhibition concentration (TGI) in the assay on HOP-62 NSCLC, in the assay with M14 melanoma, with NCI-H23 lung, in the assay on OVCAR-3 ovarian, in the assay on OVCAR-8 ovarian and in the assay with SF-295 CNS was more than 25 µM in each case. Moreover, the TGI with SK-MEL-5 melanoma, in the assay on SK-OV-3 ovarian, with SR leukemia and in the assay on SW-620 colon was more than 25 µM throughout.
`O=C1[C@@H]2C(c3ccccc3F)=NO[C@@H]2C(=O)N1c1ccc(Cc2ccc(N3C(=O)[C@H]4C(c5ccccc5F)=NO[C@H]4C3=O)cc2)cc1`: the concentration for total growth inhibition (TGI) in the assay with HOP-62 NSCLC, in the assay with M14 melanoma, with NCI-H23 lung, in the assay with OVCAR-3 ovarian, in the assay on OVCAR-8 ovarian and with SF-295 CNS was more than 100 µM throughout. Also, the TGI in the assay with SK-MEL-5 melanoma, in the assay on SK-OV-3 ovarian, in the assay on SR leukemia and in the assay with SW-620 colon was more than 100 µM in each case.
Turning to `Cc1ccc2[nH]c(O)c(N=Nc3ccc(S(N)(=O)=O)cc3)c2c1`, the GI50 was 11.5 µM in the assay on HOP-62 NSCLC; more than 25 µM with M14 melanoma; more than 21.5 µM in the assay on NCI-H23 lung; 6.73 µM in the assay on OVCAR-3 ovarian; more than 16.9 µM in the assay with OVCAR-8 ovarian; more than 14.9 µM in the assay on SF-295 CNS. In addition, the GI50 was 11 µM in the assay on SK-MEL-5 melanoma, 19.9 µM with SK-OV-3 ovarian, 7.23 µM in the assay with SR leukemia and 10.2 µM with SW-620 colon. The concentration for total growth inhibition (TGI) is more than 25 µM in the assay on HOP-62 NSCLC; more than 25 µM with M14 melanoma; more than 25 µM with NCI-H23 lung; more than 18.4 µM in the assay on OVCAR-3 ovarian; more than 25 µM in the assay on OVCAR-8 ovarian; more than 25 µM with SF-295 CNS. For the same molecule, the TGI in the assay with SK-MEL-5 melanoma, in the assay on SK-OV-3 ovarian, in the assay on SR leukemia and in the assay on SW-620 colon was more than 25 µM throughout.
`C/C(N=NC(=S)N(C)C)=C1\C=CC=CN1O`: the TGI with HOP-62 NSCLC is more than 47.3 µM; in the assay on M14 melanoma, more than 100 µM; in the assay on NCI-H23 lung, more than 100 µM; with OVCAR-3 ovarian, more than 100 µM; with OVCAR-8 ovarian, more than 94.1 µM; with SF-295 CNS it was more than 100 µM. In addition, the total growth inhibition concentration (TGI) in the assay with SK-MEL-5 melanoma, with SK-OV-3 ovarian, in the assay with SR leukemia and with SW-620 colon was more than 100 µM throughout.
Turning to `Nc1ccn(C2CCC(CO)O2)c(=O)n1` (stereo not drawn), the GI50 in the assay on HOP-62 NSCLC, in the assay on NCI-H23 lung, with OVCAR-3 ovarian, in the assay with SF-295 CNS, with SK-MEL-5 melanoma and in the assay on SK-OV-3 ovarian was more than 1000 µM each time. The GI50 in the assay on SW-620 colon is more than 1000 µM. Further, the total growth inhibition concentration (TGI) in the assay on HOP-62 NSCLC, in the assay with M14 melanoma, in the assay with NCI-H23 lung, in the assay with OVCAR-3 ovarian, with OVCAR-8 ovarian and in the assay on SF-295 CNS was more than 1000 µM each time. Moreover, the TGI in the assay on SK-MEL-5 melanoma, in the assay on SK-OV-3 ovarian, with SR leukemia and in the assay with SW-620 colon was more than 1000 µM each time.
With `C[C@]12CC[C@@H]3c4cc(OCC(F)(F)F)c(O)cc4/C(=N/O)C[C@H]3[C@@H]1CC[C@@H]2O`, the GI50 with HOP-62 NSCLC is 0.029 µM; in the assay on M14 melanoma, 0.0513 µM; in the assay with NCI-H23 lung, 0.0787 µM; in the assay with OVCAR-8 ovarian, 0.0808 µM; in the assay with SF-295 CNS it was 0.0611 µM; with SR leukemia, 0.00319 µM and 0.0157 µM. Besides, the concentration for 50% growth inhibition (GI50) in the assay with SW-620 colon was 0.0403 µM. The TGI with HOP-62 NSCLC was determined as 0.419 µM; with M14 melanoma it was 16.9 µM; with NCI-H23 lung it was 12.7 µM; in the assay with OVCAR-3 ovarian, 0.0269 µM; with OVCAR-8 ovarian, 15.5 µM; in the assay with SF-295 CNS it was 1.95 µM. The TGI in the assay with SK-MEL-5 melanoma is 12.5 µM; in the assay on SK-OV-3 ovarian, 0.439 µM; with SW-620 colon, more than 48.1 µM.
As for `O=C1NC(=O)C(CC2CCCCCCCCCCC2=O)C(=O)N1` (stereo not drawn), the TGI in the assay with HOP-62 NSCLC, in the assay with M14 melanoma, in the assay on NCI-H23 lung, in the assay with OVCAR-3 ovarian, in the assay on OVCAR-8 ovarian and with SF-295 CNS was more than 100 µM throughout. The TGI is more than 100 µM in the assay on SK-MEL-5 melanoma, more than 100 µM in the assay with SK-OV-3 ovarian, 5.28 µM with SR leukemia and more than 100 µM with SW-620 colon.
`O=C(Nc1c(Cl)cc([N+](=O)[O-])cc1Cl)C(=O)C(C1OC(=O)c2ccccc21)[N+](=O)[O-]` (stereo not drawn): the TGI in the assay with HOP-62 NSCLC, in the assay on M14 melanoma, with NCI-H23 lung, in the assay with OVCAR-3 ovarian, in the assay with OVCAR-8 ovarian and in the assay on SF-295 CNS was more than 100 µM in each case. For the same molecule, the concentration for total growth inhibition (TGI) with SK-MEL-5 melanoma, in the assay with SK-OV-3 ovarian, with SR leukemia and with SW-620 colon was more than 100 µM throughout.
